Results from US11015061B2, “Phthalocyanine-based compound and uses of same” (YAMAMOTO CHEMICALS, INC., priority 2017, dated 2021).
One block for each molecule: values may come before it.

How the values were obtained:
Assay type in all cases: physicochemical
[1] = Absorption spectrum of toluene solution (maximum absorption, gram absorption coefficient); conditions: for gram absorption coefficient: at maximum absorption
Method: A toluene solution of the compound obtained in this way had maximum absorption at 734.0 nm, and the gram absorption coefficient thereof was 1.21×10^5 mL/g·cm. The absorption spectrum chart thereof is illustrated in FIG. 1.

[2] = Solubility in organic solvent (cyclopentanone); conditions: about 10 wt % dispersion, room temperature, 0.2 μm filter; no residue = 10 wt % or more
Method: The solubility of the phthalocyanine compound with respect to cyclopentanone was measured by the following method.
Cyclopentanone was added to about 1 g of the phthalocyanine compound such that the total weight thereof became about 10 g, and the obtained solution was irradiated with ultrasonic waves for about 30 minutes and then stirred for 2 hours at room temperature, thereby preparing a dispersion liquid of about 10 wt %.
The dispersion liquid was filtered through a membrane filter (0.2 μm), the substance obtained by filtration was dried for 1 hour in a drier at 60° C., and then the weight of the substance obtained by filtration was measured.
The solubility of the phthalocyanine compound in a solvent is expressed by the following equation. Solubility (wt %)=(W0−W1)/W0
W0 represents the correct weight of the phthalocyanine not yet being treated, and W1 represents the weight of the substance obtained by filtration (dissolved phthalocyanine compound residue) having been dried.

[3] = Visible light transmittance of chloroform solution; conditions: spectrum converted to transmittance 10% at near-infrared maximum absorption wavelength
Method: The visible light transmittance of the phthalocyanine-based compound of the present invention and the comparative example compounds was measured by the following measurement method.
Each of the phthalocyanine compounds ([…]) and approximately 90 mL of chloroform were put into a 100 mL volumetric flask, and the solution in the flask was irradiated with ultrasonic waves for 30 minutes and left to stand for 2 hours at room temperature. Then, chloroform was added thereto such that the meniscus of the solution matched up with the calibration mark on the volumetric flask, thereby preparing a 10 mg/L phthalocyanine solution. The prepared solution was put into a 1 cm×1 cm cell made of PYREX (registered trademark), and the absorption spectrum thereof was measured using a spectrophotometer (produced by Hitachi, Ltd.: Spectrophotometer U-3500).
The absorption spectrum measured as above was converted such that the absorbance became 1.0, that is, the transmittance became 10% at the maximum absorption wavelength in a near-infrared range, thereby obtaining a transmission spectrum. […] At 460 nm, the transmittance of the compound of the present invention was approximately the same as the transmittance of Comparative Examples 1 and 2.

[4] = Heat resistance test of heat ray shielding film; conditions: 200 hours at 100° C., absorbance integrated 400 to 900 nm
Method: In the evaluation test, the release film was peeled from the produced heat ray shielding film, then the heat ray shielding film was compressed on a 5 cm×5 cm×3 mm (thickness) glass plate, and a test piece created in this way was used.
(§1) For a heat resistance test, the test piece used for measuring the spectrum before test as described above was treated with heat for 200 hours at a temperature of 100° C. in a thermostat (produced by Yamato Scientific co., ltd.: IG400). By using the spectrophotometer, the absorption spectrum of the heat-treated test piece was measured and adopted as a spectrum after heat resistance test.
(§2) In each of the spectra measured as above before and after the light fastness⋅heat resistance test, the values of absorbance within a range of 400 to 900 nm were integrated, and a difference between the integrated value before the light fastness⋅heat resistance test and the integrated value after the light fastness⋅heat resistance test was calculated.
(§3) The difference ΔE between the absorbance before the light fastness⋅heat resistance test and the absorbance after the light fastness⋅heat resistance test is expressed by the following equation. ΔE (%)={E(400 to 900 nm in E1)−E(400 to 900 nm in E2)}/E(400 to 900 nm in E1)×100
E1 represents the spectrum before test, E2 represents the spectrum after test, and Σ represents integration of the values of absorbance.
The larger the value of ΔE, the greater the spectrum change between before and after the light fastness⋅heat resistance test.

[5] = Tts of laminated glass sample; conditions: 0.76 mm PVB interlayer with 0.013 g compound per 100 g resin, JIS R3106
Method: (§4) The phthalocyanine-based compound (Specific Example (1)-30) produced in Example 1 (0.013 g) was dissolved in 40 g of triethylene glycol-di-2-ethylhexanoate as an organic ester plasticizer. The obtained solution was added to 100 g of a polyvinyl butyral resin (trade name: BH-3, produced by SEKISUI CHEMICAL CO., LTD.), thoroughly melted and kneaded using a mixing roll, and extruded using an extruder, thereby obtaining an interlayer having a thickness of 0.76 mm.
(§5) The interlayer was cut in size of 100 mm×100 mm, interposed between heat ray absorbing glass plates (100 mm (length)×100 mm (width)×2.0 mm (thickness)) prepared based on JIS R3208, put into a rubber bag, and deaerated for 20 minutes at a degree of vacuum of 2.6 kPa. Then, the deaerated laminate was moved into an oven and further hold for 30 minutes at 90° C. to vacuum press. Thereafter, the laminate was compressed for 20 minutes in an autoclave under the condition of a temperature of 130° C. and a pressure of 1.3 MPa, thereby obtaining a laminated glass sample.
By using U-3500 type recording spectrophotometer produced by Hitachi, Ltd. as a measurement instrument, Tts of the laminated glass samples was measured based on JIS R3106 “Testing method for transmittance, reflectance, emissivity, and solar heat gain coefficient of flat glasses”.

[6] = Visible light transmittance of laminated glass sample; conditions: 380 to 780 nm, JIS R3212
Method: as §4, §5
By using U-3500 type recording spectrophotometer produced by Hitachi, Ltd. as a measurement instrument, the visible light transmittance of the laminated glass samples at a wavelength of 380 to 780 nm was measured based on JIS R3212 “Test methods of safety glazing materials for road vehicles”.

[7] = Light fastness test of laminated glass; conditions: xenon light 200 hours at 550 W/h, absorbance integrated 400 to 900 nm
Method: as §4, §5
For a light fastness test, the absorption spectrum of the laminated glass was measured using a spectrophotometer (produced by Hitachi, Ltd.: Spectrophotometer U-3500) and adopted as a spectrum before light fastness test. Then, the laminated glass used for measuring the spectrum before test was irradiated with light for 200 hours at 550 W/h by using a xenon light fastness tester (produced by Toyo Seiki Seisaku-sho, Ltd.: SUNTEST XLS+). The absorption spectrum of the laminated glass irradiated with light was measured using the spectrophotometer and adopted as a spectrum after light fastness test.
as §2, §3
(§6) E1 represents the spectrum before test, E2 represents the spectrum after test, and Σ represents integration of values of absorbance. The larger the value of ΔE, the greater the spectrum change between before and after the light fastness⋅heat resistance test.

[8] = Heat resistance test of laminated glass; conditions: 200 hours at 100° C., absorbance integrated 400 to 900 nm
Method: as §4, §5
as §1, with “laminated glass” for “test piece”
as §2, §3, §6

maximum absorption [1]: 735.5 nm | gram absorption coefficient [1]: 74000 mL/g/cm | Solubility to cyclopentanone (wt %) [2]: ≥10% wt % | Transmittance (%) 460 nm [3]: 97.7% | Transmittance (%) 610 nm [3]: 88.1% | ΔE (%) Heat resistance [4]: 3% | Tts [5]: 52.7% | Visible light transmittance [6]: 78% | ΔE (%) Light fastness [7]: 4% | ΔE (%) Heat resistance [8]: 3%
Structure (SMILES): COc1cccc(OCCCCc2ccc(CCCCOc3cccc(OC)c3)c3c2-c2nc-3nc3[n-]c(nc4nc(nc5[n-]c(n2)c2c(CCCCOc6cccc(OC)c6)ccc(CCCCOc6cccc(OC)c6)c52)-c2c(CCCCOc5cccc(OC)c5)ccc(CCCCOc5cccc(OC)c5)c2-4)c2c(CCCCOc4cccc(OC)c4)ccc(CCCCOc4cccc(OC)c4)c32)c1.[O]=[V+2] [Specific Example (1)-39]

maximum absorption [1]: 735.5 nm | gram absorption coefficient [1]: 86300 mL/g/cm | Solubility to cyclopentanone (wt %) [2]: ≥10% wt % | Transmittance (%) 460 nm [3]: 98.0% | Transmittance (%) 610 nm [3]: 88.1% | ΔE (%) Heat resistance [4]: 3% | Tts [5]: 52.6% | Visible light transmittance [6]: 77.9% | ΔE (%) Light fastness [7]: 3% | ΔE (%) Heat resistance [8]: 3%
Structure (SMILES): [O]=[V+2].c1ccc(OCCCCc2ccc(CCCCOc3ccccc3)c3c2-c2nc-3nc3[n-]c(nc4nc(nc5[n-]c(n2)c2c(CCCCOc6ccccc6)ccc(CCCCOc6ccccc6)c52)-c2c(CCCCOc5ccccc5)ccc(CCCCOc5ccccc5)c2-4)c2c(CCCCOc4ccccc4)ccc(CCCCOc4ccccc4)c32)cc1 [Specific Example (1)-37]

maximum absorption [1]: 734.0 nm | gram absorption coefficient [1]: 119000 mL/g/cm | Solubility to cyclopentanone (wt %) [2]: ≥10% wt % | Transmittance (%) 460 nm [3]: 98.1% | Transmittance (%) 610 nm [3]: 88.3% | ΔE (%) Heat resistance [4]: 2% | Tts [5]: 51.5% | Visible light transmittance [6]: 77.5% | ΔE (%) Light fastness [7]: 2% | ΔE (%) Heat resistance [8]: 3%
Structure (SMILES): CCOCCCCc1ccc(CCCCOCC)c2c1-c1nc-2nc2[n-]c(nc3nc(nc4[n-]c(n1)c1c(CCCCOCC)ccc(CCCCOCC)c41)-c1c(CCCCOCC)ccc(CCCCOCC)c1-3)c1c(CCCCOCC)ccc(CCCCOCC)c21.[O]=[V+2] [Specific Example (1)-33]

maximum absorption [1]: 706.5 nm | gram absorption coefficient [1]: 67800 mL/g/cm | Solubility to cyclopentanone (wt %) [2]: ≥10% wt % | Transmittance (%) 460 nm [3]: 99.4% | Transmittance (%) 610 nm [3]: 88.0% | ΔE (%) Heat resistance [4]: 3% | Tts [5]: 52% | Visible light transmittance [6]: 77.9% | ΔE (%) Light fastness [7]: 2% | ΔE (%) Heat resistance [8]: 2%
Structure (SMILES): COc1cccc(OCCCCc2ccc(CCCCOc3cccc(OC)c3)c3c2-c2nc-3nc3[n-]c(nc4nc(nc5[n-]c(n2)c2c(CCCCOc6cccc(OC)c6)ccc(CCCCOc6cccc(OC)c6)c52)-c2c(CCCCOc5cccc(OC)c5)ccc(CCCCOc5cccc(OC)c5)c2-4)c2c(CCCCOc4cccc(OC)c4)ccc(CCCCOc4cccc(OC)c4)c32)c1.[Cu+2] [Specific Example (1)-40]

The next lines start with the molecule.

Structure (SMILES): COc1cccc(OC)c1OCCCCc1ccc(CCCCOc2c(OC)cccc2OC)c2c1-c1nc-2nc2[n-]c(nc3nc(nc4[n-]c(n1)c1c(CCCCOc5c(OC)cccc5OC)ccc(CCCCOc5c(OC)cccc5OC)c41)-c1c(CCCCOc4c(OC)cccc4OC)ccc(CCCCOc4c(OC)cccc4OC)c1-3)c1c(CCCCOc3c(OC)cccc3OC)ccc(CCCCOc3c(OC)cccc3OC)c21.[Cu+2] [Specific Example (1)-45]
maximum absorption [1]: 706.5 nm | gram absorption coefficient [1]: 60100 mL/g/cm | Solubility to cyclopentanone (wt %) [2]: ≥10% wt % | Transmittance (%) 460 nm [3]: 99.9% | Transmittance (%) 610 nm [3]: 89.5% | ΔE (%) Heat resistance [4]: 3% | Tts [5]: 52.5% | Visible light transmittance [6]: 77.4% | ΔE (%) Light fastness [7]: 3% | ΔE (%) Heat resistance [8]: 4%

Structure (SMILES): [O]=[V+2].c1ccc(OCCOCCCCc2ccc(CCCCOCCOc3ccccc3)c3c2-c2nc-3nc3[n-]c(nc4nc(nc5[n-]c(n2)c2c(CCCCOCCOc6ccccc6)ccc(CCCCOCCOc6ccccc6)c52)-c2c(CCCCOCCOc5ccccc5)ccc(CCCCOCCOc5ccccc5)c2-4)c2c(CCCCOCCOc4ccccc4)ccc(CCCCOCCOc4ccccc4)c32)cc1 [Specific Example (1)-38]
maximum absorption [1]: 735.0 nm | gram absorption coefficient [1]: 71600 mL/g/cm | Solubility to cyclopentanone (wt %) [2]: ≥10% wt % | Transmittance (%) 460 nm [3]: 98.3% | Transmittance (%) 610 nm [3]: 88.6% | ΔE (%) Heat resistance [4]: 3% | Tts [5]: 51.7% | Visible light transmittance [6]: 77.8% | ΔE (%) Light fastness [7]: 4% | ΔE (%) Heat resistance [8]: 2%

Structure (SMILES): COCCCCc1ccc(CCCCOC)c2c1-c1nc-2nc2[n-]c(nc3nc(nc4[n-]c(n1)c1c(CCCCOC)ccc(CCCCOC)c41)-c1c(CCCCOC)ccc(CCCCOC)c1-3)c1c(CCCCOC)ccc(CCCCOC)c21.[O]=[V+2] [Specific Example (1)-30]
maximum absorption [1]: 734.0 nm | gram absorption coefficient [1]: 121000 mL/g/cm | Solubility to cyclopentanone (wt %) [2]: ≥10% wt % | Transmittance (%) 460 nm [3]: 98.1% | Transmittance (%) 610 nm [3]: 88.4% | ΔE (%) Heat resistance [4]: 6% | Tts [5]: 53.2% | Visible light transmittance [6]: 78.1% | ΔE (%) Light fastness [7]: 5% | ΔE (%) Heat resistance [8]: 6%
